The values that follow come from patent US20140037620A1, “Methods of Treating Breast Cancer with Gemcitabine Therapy” (British Columbia Cancer Agency Branch, priority 2012, published 2014).

Where two headings read alike, the source gives them in different places.

Assay [1] relates to women with locally advanced or metastatic breast cancer. Particulars: original trial, 337 women, GD v D; cited from earlier work.
Assay [2] shares this test system. The conditions noted are these: for effect on OS / relative reduction for TTP: GD v D; for relative reduction in mortality from the addition of gemcitabine to docetaxel compared to docetaxel alone: patients with basal-like subtype (PAM50). Here is the method: Patients were randomly assigned to docetaxel (100 mg/m^2) day 1, every 21 days or gemcitabine (1000 mg/m^2) days 1 and 8 plus docetaxel (75 mg/m^2) day 8. Patients were either previously untreated, had prior anthracycline-based (neo)adjuvant chemotherapy or had received a single prior anthracycline-based chemotherapy regimen for metastatic breast cancer. The Danish Breast Cancer Cooperative Group (DBCG) prepared the original protocol as well as the biomarker supplement, and the Danish National Committee on Biomedical Research Ethics has approved the original protocol as well as the add-on (KF 02-045-01 and H-KF-02-045-01) before their activation. Time to progression (TTP) was the primary endpoint for the original trial as well as this biomarker sub-study (Nielsen et al., JCO 2011; 29:4748-4754). Overall survival (OS) and response rate (RR) were secondary endpoints. TTP was measured from random assignment to date of documented progression with censoring at date of last visit or of death. OS was calculated from date of random assignment to date of death with censoring for surviving patients at last visit date. Time-to-event endpoints (TTP and OS) were estimated by the Kaplan-Meier method, and PAM50 subtypes were compared using the log-rank test. Analyses of PAM50 subtypes were done unadjusted and adjusted for preselected covariates in multivariate Cox proportional hazards models. […] The adjusted model was further stratified for previous chemotherapy (Nielsen et al., JCO 2011; 29:4748-4754). The assumption of proportional hazards was assessed by Schoenfeld residuals. Analyses were done to assess whether treatment effects on TTP and OS varied according to PAM50 subtypes or the levels of preselected variables. The multivariate Cox proportional hazards model was extended by one interaction term at a time. The interaction terms were tested using the Wald test and results were given in a Forest plot. RR was evaluated for patients with measurable disease. […] RRs were compared by using Fisher's exact test.

Turning to gemcitabine plus docetaxel [GD], the “HR for OS, treatment effect in the original study” value in assay [1] is on record as 0.94. Further, the “HR for TTP, treatment effect in the original study” value in assay [1] is 0.68. The “gain in median overall survival, doublet arm compared to monotherapy arm” value in assay [2] (basal-like patients, Kaplan-Meier estimates) is given as 10 months. Also, the “effect on TTP across PAM50 intrinsic subtypes” value in assay [2] (multivariate Cox regression, interaction test) is given as “TTP seemed equally improved in PAM50 intrinsic subtypes”. In addition, the “effect on OS” value in assay [2] (patients with HER2-enriched subtype) is “significantly worsened OS”; in assay [2] (patients with basal-like breast cancer), “significantly improved OS”; in assay [2] (patients with basal-like breast cancer, listed as gemcitabine and docetaxel), “more substantial reduction in mortality”. The “risk of TTP events and mortality in the doublet arm compared to single agent docetaxel” value in assay [2] (patients with HER2 amplified tumors) is reported as “higher risk of TTP events”. The entries for the “relative reduction in mortality from the addition of gemcitabine to docetaxel compared to docetaxel alone” value in assay [2] and in assay [2] (listed as gemcitabine plus docetaxel) were 71% and 73%, respectively. Besides, the “relative reduction for TTP” value amounted to 63% in assay [2] (patients with basal-like subtype) and 37% in assay [2] (patients with other (non-basal-like) subtypes). Moreover, the “benefit from adding gemcitabine to docetaxel” value in assay [2] (patients with highly proliferative subtypes (non-luminal A)) was “No support was found for a more general benefit”. Moreover, the “survival benefit compared with docetaxel monotherapy” value in assay [2] (patients with non-basal-like subtypes) is reported as “no significant incremental survival benefit”.
